Measured values from patent US20230391845A1, “GLP-1, GIP AND GLUCAGON RECEPTOR TRIPLE AGONISTS” (priority 2020, published 2023).
Where two headings read alike, the source gives them in different places. *1 amine or outer side, *2 acyl side, *3 side chain or, on linkers, in order; H or OH if unused. Where a SMILES comes first, the peptide text is derived from it. Side-chain parts run from the residue outwards. [ ]: non-standard residue; d: D form. The star is where a group is joined. C20 diacid = O=C(O)CCCCCCCCCCCCCCCCCCC(=O)*; γGlu = O=C(O)[C@H](CCC(=O)[*:2])N[*:1]; εLys = N[C@@H](CCCCN[*:1])C(=O)[*:2]; AEEA = NCCOCCOCC(=O)O; Aib = CC(C)(N)C(=O)O

Tests used:
[1] = Pharmacokinetic study in minipigs, i.v. administration; parameters: species or system Göttingen minipigs; conditions: female, Göttingen, minipig, in vivo, iv
Procedure: The purpose of this example is to determine the half-life in vivo of the triple agonists as described herein after i.v. administration to minipigs, i.e. the prolongation of their time in the body and thereby their time of action. This is done in a pharmacokinetic (PK) study, where the terminal half-life of the triple agonist in question is determined. By terminal half-life is generally meant the period of time it takes to halve a certain plasma concentration, measured after the initial distribution phase.
Female Göttingen minipigs were obtained from Ellegaard Göttingen Minipigs (Dalmose, Denmark) approximately 7-14 months of age and weighing from approximately 16-35 kg were used in the studies. The minipigs were housed individually and fed restrictedly once daily with SDS minipig diet (Special Diets Services, Essex, UK).
After at 3 weeks of acclimatisation two permanent central venous catheters were implanted in vena cava caudalis in each animal. The animals were allowed 1 week recovery after the surgery, and were then used for repeated pharmacokinetic studies with a suitable wash-out period between successive dosings.
The animals were fasted for approximately 18 hours before dosing and from 0 to 4 hours after dosing, but had adlibitum access to water during the whole period.
Intravenous injections (the volume corresponding to usually 1.5-2 nmol/kg, for example 0.1 mL/kg) of the triple agonists were given through one catheter, and blood was sampled at predefined time points for up to 14 days post dosing (preferably through the other catheter). Blood samples (for example 0.8 mL) were collected in 8 mM EDTA buffer and then centrifuged at 4° C. and 1942 g for 10 minutes.
Plasma was pipetted into Micronic tubes on dry ice and kept at −20° C. until analysed for plasma concentration of the triple agonists using ELISA, or a similar antibody-based assay, or LCMS. Individual plasma concentration-time profiles were analysed by a non-compartmental model in Phoenix WinNonLin ver. 6.4. (Pharsight Inc., Mountain View, CA, USA), and the resulting terminal half-lives (harmonic mean) determined.

human GLP-1 receptor = biological target: T1, human GLP-1 receptor (Homo sapiens, UniProt P43220); assay: In vitro functional potency (CRE luciferase; whole cells), human GLP-1R; type: cell-based
T1 construct: expressed in transfected cells; host or cells: BHK cells (parent line BHKTS13) containing CRE luciferase
T1 sequence (P43220 24-463): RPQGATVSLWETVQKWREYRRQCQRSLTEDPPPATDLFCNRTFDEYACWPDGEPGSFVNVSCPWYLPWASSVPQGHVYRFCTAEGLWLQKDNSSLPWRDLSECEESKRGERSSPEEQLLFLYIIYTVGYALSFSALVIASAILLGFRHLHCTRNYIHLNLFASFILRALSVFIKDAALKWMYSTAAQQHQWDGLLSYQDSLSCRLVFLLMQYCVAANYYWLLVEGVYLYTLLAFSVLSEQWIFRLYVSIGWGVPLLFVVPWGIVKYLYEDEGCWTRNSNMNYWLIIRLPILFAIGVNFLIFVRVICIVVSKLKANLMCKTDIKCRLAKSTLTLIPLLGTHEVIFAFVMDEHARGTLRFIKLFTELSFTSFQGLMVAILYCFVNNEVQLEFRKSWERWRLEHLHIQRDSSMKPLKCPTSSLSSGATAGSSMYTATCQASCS

[2] = Pharmacodynamic study in DIO mice, daily s.c. dosing over 13 days (body weight, food intake); type: in vivo, C57BL/6J male mice; conditions: for Absolute BW (grams) Day 0: Day 0 (baseline); for Cumulative food intake (grams) Day 13: mean ± SEM, n = 2
Procedure: The purpose of this example is to assess the in vivo effect of selected triple agonists on pharmacodynamic parameters in diet-induced obese (DIO) mice. The animals were treated once daily via subcutaneous injection with a liquid formulation of the triple agonist to be tested to assess effects on body weight, foot intake, and glucose tolerance.
C57BL/6J male mice were purchased from Jackson Laboratories at approximately 8 weeks of age. Mice were group housed and fed a high-fat, high-sugar diet from Research Diets (D12331). Mice were maintained on this diet for 12 weeks prior to initializing the pharmacology studies. Mice exceeding a measured body weight of 50 grams were considered diet-induced obese (DIO) and included in pharmacology studies. Mice were exposed to a controlled 12 h:12 h light:dark cycle at ambient room temperature (22° C.) with ab libitum access to food and water. Studies were approved by and performed according to the guidelines of the Institutional Animal Care and Use Committee of the University of Cincinnati.
All compounds in the study were formulated in the following buffer: 50 mM phosphate; 70 mM sodium chloride; 0.05% Tween-80, pH 7.4. Dosing solutions were formulated in glass vials and stored at 2-8° C. Dosing solutions were brought to room temperature before dosing and returned to 2-8° C. after dosing.
The animals were grouped to receive treatment as follows: Vehicle or GLP-1/GIP/Gcg receptor triple agonists as described herein, where vehicle is 50 mM phosphate, 70 mM sodium chloride; 0.05% (v/v) Tween-80, pH 7.4. The test compounds were dissolved in the vehicle, to stock concentrations of […], then diluted 50- to 200-fold in the vehicle to achieve the desired dosing solution concentrations. Animals were dosed subcutaneously once daily in the morning for each day of treatment with dosing solution at a volume of 2-5 μL per gram of body weight as necessary to achieve the desired dose (e.g. 0.3 nmol/kg, 1.0 nmol/kg, or 3.0 nmol/kg).
Body weight (BW) and food intake were measured immediately prior to dosing each day. The percent change in body was calculated individually for each mouse based on initial body weight prior to the first injection.

[3] = BHK CRE luc2P hGLP-1R whole cells, Table 2, read-out: hGLP-1R CRE Luc EC50
[4] = daily s.c. dosing over 13 days, compared to vehicle

CC[C@H](C)[C@H](NC(=O)[C@H](CO)NC(=O)[C@H](Cc1ccc(O)cc1)NC(=O)[C@H](CC(=O)O)NC(=O)[C@H](CO)NC(=O)[C@@H](NC(=O)[C@H](Cc1ccccc1)NC(=O)[C@@H](NC(=O)CNC(=O)[C@H](CCC(N)=O)NC(=O)C(C)(C)NC(=O)[C@@H](N)Cc1ccc(O)cc1)[C@@H](C)O)[C@@H](C)O)C(=O)N[C@@H](Cc1ccc(O)cc1)C(=O)N[C@@H](CC(C)C)C(=O)N[C@@H](CC(=O)O)C(=O)N[C@@H](CCCCN)C(=O)N[C@@H](CCCCNC(=O)COCCOCCNC(=O)COCCOCCNC(=O)CC[C@H](NC(=O)CCCCCCCCCCCCCCCCCCC(=O)O)C(=O)O)C(=O)N[C@@H](C)C(=O)N[C@@H](C)C(=O)NC(C)(C)C(=O)N[C@@H](CCC(=O)O)C(=O)N[C@@H](Cc1ccccc1)C(=O)N[C@H](C(=O)N[C@@H](CC(N)=O)C(=O)N[C@@H](Cc1c[nH]c2ccccc12)C(=O)N[C@@H](CC(C)C)C(=O)N[C@@H](CC(C)C)C(=O)N[C@@H](C)C(=O)NCC(=O)NCC(=O)N1CCC[C@H]1C(=O)N[C@@H](CO)C(=O)N[C@@H](CO)C(=O)NCC(=O)N[C@@H](C)C(=O)N1CCC[C@H]1C(=O)N1CCC[C@H]1C(=O)N1CCC[C@H]1C(=O)N[C@@H](CO)C(N)=O)C(C)C [Compound No. 9] (H-Y[Aib]QGTFTSDYSIYLDKK([AEEA-AEEA-γGlu-C20 diacid])AA[Aib]EFVNWLLAGGPSSGAPPPS-NH2)
half-life [1]: 103 h | EC50 (human GLP-1 receptor; [3]): 4.4 pM

CC(C)C[C@H](NC(=O)[C@H](CC(C)C)NC(=O)[C@H](Cc1c[nH]c2ccccc12)NC(=O)[C@H](CCC(N)=O)NC(=O)[C@@H](NC(=O)[C@H](Cc1ccccc1)NC(=O)[C@H](CCC(=O)O)NC(=O)C(C)(C)NC(=O)[C@H](C)NC(=O)[C@H](C)NC(=O)[C@H](CCCCN)NC(=O)[C@H](CCCCNC(=O)[C@@H](N)CCCCNC(=O)[C@@H](N)CCCCNC(=O)CC[C@H](NC(=O)CCCCCCCCCCCCCCCCCCC(=O)O)C(=O)O)NC(=O)[C@H](CCC(=O)O)NC(=O)[C@H](CC(C)C)NC(=O)[C@H](Cc1ccc(O)cc1)NC(=O)[C@H](Cc1ccc(O)cc1)NC(=O)[C@H](CO)NC(=O)[C@H](Cc1ccc(O)cc1)NC(=O)[C@H](CC(=O)O)NC(=O)[C@H](CO)NC(=O)[C@@H](NC(=O)[C@H](Cc1ccccc1)NC(=O)[C@@H](NC(=O)CNC(=O)[C@H](Cc1c[nH]cn1)NC(=O)C(C)(C)NC(=O)[C@@H](N)Cc1c[nH]cn1)[C@@H](C)O)[C@@H](C)O)C(C)C)C(=O)N[C@@H](CCC(=O)O)C(=O)NCC(=O)NCC(=O)N1CCC[C@H]1C(=O)N[C@@H](CO)C(=O)N[C@@H](CO)C(=O)NCC(=O)N[C@@H](C)C(=O)N1CCC[C@H]1C(=O)N1CCC[C@H]1C(=O)N1CCC[C@H]1C(=O)N[C@@H](CO)C(N)=O [Compound No. 31] (H-H[Aib]HGTFTSDYSYYLEK([εLys-εLys-γGlu-C20 diacid])KAA[Aib]EFVQWLLEGGPSSGAPPPS-NH2; N-terminus assumed)
half-life [1]: 55 h | EC50 (human GLP-1 receptor; [3]): 3 pM

CC[C@H](C)[C@H](NC(=O)[C@H](CO)NC(=O)[C@H](Cc1ccc(O)cc1)NC(=O)[C@H](CC(=O)O)NC(=O)[C@H](CO)NC(=O)[C@@H](NC(=O)[C@H](Cc1ccccc1)NC(=O)[C@@H](NC(=O)CNC(=O)[C@H](Cc1c[nH]cn1)NC(=O)C(C)(C)NC(=O)[C@@H](N)Cc1c[nH]cn1)[C@@H](C)O)[C@@H](C)O)C(=O)N[C@@H](Cc1ccc(O)cc1)C(=O)N[C@@H](CC(C)C)C(=O)N[C@@H](CCC(=O)O)C(=O)N[C@@H](CCCCNC(=O)COCCOCCNC(=O)COCCOCCNC(=O)CC[C@H](NC(=O)CCCCCCCCCCCCCCCCCCC(=O)O)C(=O)O)C(=O)N[C@@H](CCCCN)C(=O)N[C@@H](Cc1ccc(O)cc1)C(=O)N[C@@H](C)C(=O)NC(C)(C)C(=O)N[C@@H](CCC(=O)O)C(=O)N[C@@H](Cc1ccccc1)C(=O)N[C@H](C(=O)N[C@@H](CCC(N)=O)C(=O)N[C@@H](Cc1c[nH]c2ccccc12)C(=O)N[C@@H](CC(C)C)C(=O)N[C@@H](CC(C)C)C(=O)N[C@@H](CCC(=O)O)C(=O)NCC(=O)NCC(=O)N1CCC[C@H]1C(=O)N[C@@H](CO)C(=O)N[C@@H](CO)C(=O)NCC(=O)N[C@@H](C)C(=O)N1CCC[C@H]1C(=O)N1CCC[C@H]1C(=O)N1CCC[C@H]1C(=O)N[C@@H](CO)C(N)=O)C(C)C [Compound No. 39] (H-H[Aib]HGTFTSDYSIYLEK([AEEA-AEEA-γGlu-C20 diacid])KYA[Aib]EFVQWLLEGGPSSGAPPPS-NH2)
half-life [1]: 66 h | EC50 (human GLP-1 receptor; [3]): 4.4 pM

CC[C@H](C)[C@H](NC(=O)[C@H](CO)NC(=O)[C@H](Cc1ccc(O)cc1)NC(=O)[C@H](CC(=O)O)NC(=O)[C@H](CO)NC(=O)[C@@H](NC(=O)[C@H](Cc1ccccc1)NC(=O)[C@@H](NC(=O)CNC(=O)[C@H](Cc1c[nH]cn1)NC(=O)C(C)(C)NC(=O)[C@@H](N)Cc1c[nH]cn1)[C@@H](C)O)[C@@H](C)O)C(=O)N[C@@H](CC(C)C)C(=O)N[C@@H](CC(C)C)C(=O)N[C@@H](CCC(=O)O)C(=O)N[C@@H](CCCCNC(=O)[C@@H](N)CCCCNC(=O)[C@@H](N)CCCCNC(=O)CC[C@H](NC(=O)CCCCCCCCCCCCCCCCCCC(=O)O)C(=O)O)C(=O)N[C@@H](CCC(N)=O)C(=O)N[C@@H](C)C(=O)N[C@@H](C)C(=O)NC(C)(C)C(=O)N[C@@H](CCC(=O)O)C(=O)N[C@@H](Cc1ccccc1)C(=O)N[C@H](C(=O)N[C@@H](CCC(N)=O)C(=O)N[C@@H](Cc1c[nH]c2ccccc12)C(=O)N[C@@H](CC(C)C)C(=O)N[C@@H](CC(C)C)C(=O)N[C@@H](CCC(=O)O)C(=O)NCC(=O)NCC(=O)N1CCC[C@H]1C(=O)N[C@@H](CO)C(=O)N[C@@H](CO)C(=O)NCC(=O)N[C@@H](C)C(=O)N1CCC[C@H]1C(=O)N1CCC[C@H]1C(=O)N1CCC[C@H]1C(=O)N[C@@H](CO)C(N)=O)C(C)C [Compound No. 43] (H-H[Aib]HGTFTSDYSILLEK([εLys-εLys-γGlu-C20 diacid])QAA[Aib]EFVQWLLEGGPSSGAPPPS-NH2)
Absolute BW (grams) Day 0 ([2]; 1.0 nmol/kg group): 60.4 ± 1.0 grams | Absolute BW (grams) Day 13 ([2]; 1.0 nmol/kg s.c. once daily): 48.7 ± 1.4 grams | Change in BW (%) Day 13 ([2]; 1.0 nmol/kg s.c. once daily): −19.4 ± 1.5% | Cumulative food intake (grams) Day 13 ([2]; 1.0 nmol/kg s.c. once daily): 21.1 ± 3.3 grams | Absolute BW (grams) Day 0 ([2]; 3.0 nmol/kg group): 60.1 ± 1.9 grams | Absolute BW (grams) Day 13 ([2]; 3.0 nmol/kg s.c. once daily): 36.3 ± 1.0 grams | Change in BW (%) Day 13 ([2]; 3.0 nmol/kg s.c. once daily): −39.5 ± 1.3% | Cumulative food intake (grams) Day 13 ([2]; 3.0 nmol/kg s.c. once daily): 11.5 ± 2.4 grams | reduction in body weight (in words) [2, 4]: superior reduction | reduction in food intake (in words) [2, 4]: superior reduction | half-life ([1]; minipigs, i.v. administration, harmonic mean, read-out: Terminal half-life t1/2 (converted)): 71 h | EC50 (human GLP-1 receptor): 3 pM
